Values of other authors as cited in patent EP0349514A1, “Prolonged-release pharmaceutical composition containing erythromycine, its preparation and its use” (priority 1988, dated 1990).

Conditions: plasma

Question: With CC[C@H]1OC(=O)[C@H](C)[C@@H](O[C@H]2C[C@@](C)(OC)[C@@H](O)[C@H](C)O2)[C@H](C)[C@@H](O[C@@H]2O[C@H](C)C[C@H](N(C)C)[C@H]2O)[C@](C)(O)C[C@@H](C)C(=O)[C@H](C)[C@@H](O)[C@]1(C)O [érythromycine] as the compound, how does the “temps de demi-vie plasmatique t 1/2” value read?
Answer: Its value is 1,6 h.
